These results are taken from patent US8318928B2, “Fused imidazole carboxamides as TRPV3 modulators” (Glenmark Pharmaceuticals, S.A., priority 2008, dated 2012).

In this test the target is T1, Human TRPV3 expressing CHO cells (Homo sapiens, UniProt Q8NET8).
T1 construct: expressed in transfected cells; host or cells: CHO cells, kept under G-418 selection
T1 sequence (Q8NET8 1-790): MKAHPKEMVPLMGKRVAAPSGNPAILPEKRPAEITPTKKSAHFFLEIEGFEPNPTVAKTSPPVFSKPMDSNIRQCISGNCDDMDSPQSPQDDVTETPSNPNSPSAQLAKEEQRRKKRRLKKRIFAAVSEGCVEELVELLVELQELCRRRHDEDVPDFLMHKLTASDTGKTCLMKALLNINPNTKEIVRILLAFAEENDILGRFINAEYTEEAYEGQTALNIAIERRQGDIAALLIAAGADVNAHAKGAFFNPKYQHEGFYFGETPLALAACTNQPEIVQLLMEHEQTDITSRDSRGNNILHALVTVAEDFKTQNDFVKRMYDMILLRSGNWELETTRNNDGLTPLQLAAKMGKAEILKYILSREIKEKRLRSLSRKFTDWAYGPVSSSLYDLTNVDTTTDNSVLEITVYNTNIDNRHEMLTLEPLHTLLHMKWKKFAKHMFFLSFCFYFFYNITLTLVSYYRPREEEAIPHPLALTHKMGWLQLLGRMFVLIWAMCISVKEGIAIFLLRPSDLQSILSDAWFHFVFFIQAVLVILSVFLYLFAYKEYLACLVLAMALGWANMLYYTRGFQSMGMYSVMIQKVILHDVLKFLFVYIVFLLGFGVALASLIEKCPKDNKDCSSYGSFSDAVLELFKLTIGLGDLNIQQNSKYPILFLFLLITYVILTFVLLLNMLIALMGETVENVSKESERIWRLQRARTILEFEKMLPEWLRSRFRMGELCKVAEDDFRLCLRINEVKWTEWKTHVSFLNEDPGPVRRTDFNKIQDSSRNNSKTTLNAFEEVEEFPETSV
Nature of the test: 45Calcium uptake assay: inhibition of 2-APB induced cellular uptake of radioactive calcium. Type of test: cell-based. The following applies: 2-APB 500 μM; for inhibition at 1 µM / Percentage inhibition at 1.0 μM: compound at 1.0 μM; for inhibition at 1 µM: read-out: Percentage inhibition at 1.0 μM; for inhibition at 10 µM / Percentage inhibition at 10.0 μM: compound at 10.0 μM; for inhibition at 10 µM: read-out: Percentage inhibition at 10.0 μM; for IC50: class symbols. From the text: Certain illustrative compounds within the scope of the present invention are screened for TRPV3 activity according to a modified procedure described in (a) Tóth, A. et al. Life Sciences 2003, 73, 487-498. (b) McNamara C, R. et al. Proc. Natl. Acad. Sci. U.S.A., 2007, 104, 13525-13530. The screening of the compounds may be carried out by other methods and procedures known to persons skilled in the art.
Screening for TRPV3 Antagonist Using the ^45Calcium Uptake Assay
The inhibition of TRPV3 receptor activation was followed as inhibition of 2-aminoethxydiphenylborate (2-APB) induced cellular uptake of radioactive calcium. Test compounds were dissolved in dimethyl sulfoxide (DMSO) to prepare 20 mM stock solution and then diluted using plain medium with DMEM/F-12 containing 1.8 mM CaCl2 to get desired concentration. Final concentration of DMSO in the reaction was 0.5% (v/v). Human TRPV3 expressing CHO cells were grown in DMEM/F-12 medium with 10% FBS, 1% penicillin-streptomycin solution, 400 μg/mL of G-418. Cells were seeded 24 h prior to the assay in 96 well plates so as to get ˜50,000 cells per well on the day of experiment. Cells were treated with test compounds for 10 minutes followed by addition of 2-APB at a final concentration of 500 μM and 5 μCi/mL ^45Ca^+2 for 4 minutes. Cells were washed and lysed using buffer containing 1% Triton X-100, 0.1% deoxycholate and 0.1% SDS. Radioactivity in the lysate was measured in Packardt Top count after addition of liquid scintillant. Concentration response curves were plotted as a % of maximal response obtained in the absence of test antagonist. IC50 value was calculated from concentration response curve by nonlinear regression analysis using GraphPad PRISM software.
Percentage inhibition at concentrations of 1.0 μM and 10.0 μM are given in the table along with IC50 (nM) details for selected examples.

SMILES strings stand for the structures.

Consider `CC(C)c1csc(NC(=O)c2c(/C=C/c3cccc(OC(F)F)c3OCC(C)(C)C)nc3sccn23)n1` [Example 20, 6-{(E)-2-[2-(2,2-Dimethylpropoxy)-3-(difluoromethoxy)phenyl]vinyl}-N-(4-isopropyl-1,3-thiazol-2-yl)imidazo[2,1-b][1,3]thiazole-5-carboxamide], for which the inhibition at 1 µM is 53.3% and the inhibition at 10 µM turned out to be 81.7%.
In the case of `O=C(Nc1nc(C2CC2)cs1)c1c(/C=C/c2cccc(OC(F)F)c2OCC2CCC2)nc2sccn12` [Example 35, 6-{(E)-2-[2-(Cyclobutylmethoxy)-3-(difluoromethoxy)phenyl]vinyl}-N-(4-cyclopropyl-1,3-thiazol-2-yl)imidazo[2,1-b][1,3]thiazole-5-carboxamide], the 50% inhibitory concentration (IC50) was less than 100 nM, the inhibition at 1 µM was 84.3% and the inhibition at 10 µM came out at 96.5%.
With `CC(C)(C)COc1c(/C=C/c2nc3sccn3c2C(=O)Nc2ncc(C(F)(F)F)cc2Cl)cccc1OC(F)F` [Example 27, N-[3-Chloro-5-(trifluoromethyl)pyridin-2-yl]-6-{(E)-2-[3-(difluoromethoxy)-2-(2,2-dimethylpropoxy)phenyl]vinyl}imidazo[2,1-b][1,3]thiazole-5-carboxamide], the inhibition at 1 µM is 25.7% and the inhibition at 10 µM worked out at 33.9%.
With `COc1cccc(/C=C/c2nc3sccn3c2C(=O)Nc2ccc(OC(F)(F)F)cc2)c1OCC1CC1` [Example 1, 6-[(E)-2-(2-Cyclopropylmethoxy-3-methoxyphenyl)vinyl]-N-[4-(trifluoromethoxy)phenyl]imidazo[2,1-b][1,3]thiazole-5-carboxamide], the inhibition at 1 µM stood at 9.3% and the inhibition at 10 µM amounted to 38.6%.
As for `CC(C)CCOc1c(/C=C/c2nc3ccccn3c2C(=O)Nc2nc(C(F)(F)F)cs2)cccc1OC(F)F` [Example 41, 2-{(E)-2-[3-(Difluoromethoxy)-2-(3-methylbutoxy)phenyl]vinyl}-N-[4-(trifluoromethyl)-1,3-thiazol-2-yl]imidazo[1,2-c]pyridine-3-carboxamide], the “Percentage inhibition at 1.0 μM” value worked out at 52.99% and the “Percentage inhibition at 10.0 μM” value worked out at 84.65%.
For `COc1cccc(/C=C/c2nc3sccn3c2C(=O)Nc2nc(C(C)(C)C)cs2)c1OCC(C)(C)C` [Example 8, 6-{(E)-2-[2-(2,2-Dimethylpropoxy)-3-methoxyphenyl]vinyl}-N-[4-(tert-butyl)-1,3-thiazol-2-yl]imidazo[2,1-b][1,3]thiazole-5-carboxamide], the IC50 was less than 100 nM, the inhibition at 1 µM is 88.1% and the inhibition at 10 µM came to 91.1%.
With `COc1cccc(/C=C/c2nc3sccn3c2C(=O)N2CCCc3ccccc32)c1OCC1CC1` [Example 3, 1-({6-[(E)-2-(2-Cyclopropylmethoxy-3-methoxyphenyl)vinyl]imidazo[2,1-b][1,3]thiazol-5-yl}carbonyl)-1,2,3,4-tetrahydroquinoline], the inhibition at 1 µM is 34.6% and the inhibition at 10 µM stood at 90.6%.
For the molecule `O=C(Nc1nc(C(F)(F)F)cs1)c1c(/C=C/c2cccc(OC(F)F)c2OC2CCCC2)nc2sccn12` [Example 17, 6-{(E)-2-[2-Cyclopentyloxy-3-(difluoromethoxy)phenyl]vinyl}-N-[4-(trifluoromethyl)-1,3-thiazol-2-yl]imidazo[2,1-b][1,3]thiazole-5-carboxamide], the IC50 was in the range of 250 to 1000 nM, the inhibition at 1 µM came out at 85.3% and the inhibition at 10 µM was found to be 94.6%.
Consider `COc1cccc(/C=C/c2nc3sccn3c2C(=O)Nc2nc(C(F)(F)F)cs2)c1OC1CCCC1` [Example 16, 6-[(E)-2-(2-Cyclopentyloxy-3-methoxyphenyl)vinyl]-N-[4-(trifluoromethyl)-1,3-thiazol-2-yl]imidazo[2,1-b][1,3]thiazole-5-carboxamide], for which the IC50 fell in the range of 250 to 1000 nM, the inhibition at 1 µM was 81.7% and the inhibition at 10 µM was 93.1%.
`COc1cccc(/C=C/c2nc3sccn3c2C(=O)Nc2nc(C(F)(F)F)co2)c1OCC(C)(C)C` [Example 13, 6-{[(E)-2-(2,2-Dimethylpropoxy)-3-methoxyphenyl]vinyl}-N-[4-(trifluoromethyl)-1,3-oxazol-2-yl]imidazo[2,1-b][1,3]thiazole-5-carboxamide]: the “Percentage inhibition at 1.0 μM” value worked out at 10.75% and the “Percentage inhibition at 10.0 μM” value was determined as 31.51%.
For `CC(C)(C)COc1c(/C=C/c2nc3sccn3c2C(=O)Nc2nc(C(C)(C)C)cs2)cccc1OC(F)F` [Example 21, 6-[(E)-2-(3-(Difluoromethoxy)-2-(2,2-dimethylpropoxy)-phenyl)vinyl]-N-(4-tert-butyl-1,3-thiazol-2-yl)imidazo[2,1-b][1,3]thiazole-5-carboxamide], the IC50 lay within 100 to 250 nM, the inhibition at 1 µM stood at 80.8% and the inhibition at 10 µM was found to be 89.8%.
`CC(C)(C)COc1c(/C=C/c2nc3sccn3c2C(=O)NCc2cccc(C(F)(F)F)c2)cccc1OC(F)F` [Example 25, 6-{(E)-2-[3-(Difluoromethoxy)-2-(2,2-dimethylpropoxy)phenyl]vinyl}-N-(3-trifluoromethylbenzyl)imidazo[2,1-b][1,3]thiazole-5-carboxamide]: the inhibition at 1 µM came to 0% and the inhibition at 10 µM is 18.2%.
For `CC(C)(C)COc1c(/C=C/c2nc3sccn3c2C(=O)Nc2cccc(C(F)(F)F)c2)cccc1OC(F)F` [Example 24, 6-{(E)-2-[3-(Difluoromethoxy)-2-(2,2-dimethylpropoxy)phenyl]vinyl}-N-(3-trifluoromethylphenyl)imidazo[2,1-b][1,3]thiazole-5-carboxamide] the same measures were 22.5% and 37.3%.
As for `COc1cccc(/C=C/c2nc3sccn3c2C(=O)N2CCn3c(nnc3C(F)(F)F)C2)c1OCC(C)(C)C` [Example 14], the “Percentage inhibition at 1.0 μM” value was 10.33% and the “Percentage inhibition at 10.0 μM” value was 15.45%.
For `CCCCCOc1c(/C=C/c2nc3sccn3c2C(=O)Nc2nc(C(F)(F)F)cs2)cccc1OC(F)F` [Example 33], the inhibition at 1 µM worked out at 51.8% and the inhibition at 10 µM is 93.1%.
As for `CC(C)(C)COc1c(/C=C/c2nc3sccn3c2C(=O)Nc2nc(C3CCC3)cs2)cccc1OC(F)F` [Example 22, 6-{(E)-2-[2-(2,2-Dimethylpropoxy)-3-(difluoromethoxy)phenyl]vinyl}-N-(4-cyclobutyl-1,3-thiazol-2-yl)imidazo[2,1-b][1,3]thiazole-5-carboxamide], the inhibition at 1 µM was 47.9% and the inhibition at 10 µM was 86.5%.
Take `CC(C)(C)COc1c(/C=C/c2nc3sccn3c2C(=O)Nc2nc(C(F)(F)F)cs2)cccc1OC(F)F` [Example 18, 6-{(E)-2-[3-Difluoromethoxy-2-(2,2-dimethylpropoxy)phenyl]vinyl}-N-[4-(trifluoro-methyl)-1,3-thiazol-2-yl]imidazo[2,1-b][1,3]thiazole-5-carboxamide]: the IC50 is less than 100 nM, the inhibition at 1 µM was found to be 96.9% and the inhibition at 10 µM came out at 98.2%.
As for `CC(C)(C)COc1c(/C=C/c2nc3sccn3c2C(=O)NCC(F)(F)F)cccc1OC(F)F` [Example 31, 6-{(E)-2-[3-(Difluoromethoxy)-2-(2,2-dimethylpropoxy)phenyl]vinyl}-N-(2,2,2-trifluoroethyl)imidazo[2,1-b][1,3]thiazole-5-carboxamide], the inhibition at 1 µM was determined as 60.9% and the inhibition at 10 µM was 97.7%.

As a reminder, the inhibition is the drop in the measured response relative to a control, in per cent. Broadly, the IC50 is the concentration that gives 50% inhibition.
